Measurements: publication PMC12300041, “Tricyclic Isatin Derivatives as Anti-Inflammatory Compounds with High Kinase Binding Affinity” (Molecules, 2025)

How the values were obtained:
[1] = test system: proinflammatory cytokine production; assay: Multiplex human cytokine ELISA, LPS-stimulated MonoMac-6 cells; type: cell-based; conditions: 10 μM compound, 24 h, versus DMSO-treated control
Excerpt: A multiplex human cytokine ELISA kit from Anogen (Mississauga, ON, Canada) was used to evaluate various cytokines (IL-1α, IL-1β, IL-6, GM-CSF, MCP-1, IFN-γ, and TNF) in the supernatants of MonoMac-6 cells.

[2] = Cytotoxicity, CellTiter-Glo; type: cell-based, human; conditions: human, THP-1Blue cells; 24 h incubation; N.T.: no cytotoxicity at concentrations up to 50 µM
Protocol: (§1) Cytotoxicity was analyzed with a CellTiter-Glo Luminescent Cell Viability Assay Kit from Promega (Madison, WI, USA) according to the manufacturer’s protocol. THP-1Blue cells were treated with varying concentrations of the test compounds (up to 50 µM) and cultivated for 24 h. After treatment, the cells were allowed to equilibrate to room temperature for 30 min, the substrate was added, and the samples were analyzed with a Fluoroscan Ascent FL (Thermo Fisher Scientific, Waltham, MA, USA).

[3] = test system: THP-1 Cells; assay: Cytotoxicity, CellTiter-Glo; type: cell-based, human; conditions: 24 h incubation; N.T.: no cytotoxicity at concentrations up to 50 µM
Protocol: as §1

[4] = Cytotoxicity, CellTiter-Glo; type: cell-based, human; conditions: human, MonoMac-6 cells; 24 h incubation; N.T.: no cytotoxicity at concentrations up to 50 µM
[5] = test system: MonoMac-6 Cells; assay: Cytotoxicity, CellTiter-Glo; type: cell-based, human; conditions: 24 h incubation; N.T.: no cytotoxicity at concentrations up to 50 µM
[6] = biological target: T1, DAPK1 (Homo sapiens, UniProt P53355); assay: KINOMEscan; type: binding; conditions: DAPK1; N.B.: no binding at concentrations up to 30 µM
T1 construct: purchased Eurofins Pharma Discovery (KINOMEscan)
T1 sequence (P53355 whole entry): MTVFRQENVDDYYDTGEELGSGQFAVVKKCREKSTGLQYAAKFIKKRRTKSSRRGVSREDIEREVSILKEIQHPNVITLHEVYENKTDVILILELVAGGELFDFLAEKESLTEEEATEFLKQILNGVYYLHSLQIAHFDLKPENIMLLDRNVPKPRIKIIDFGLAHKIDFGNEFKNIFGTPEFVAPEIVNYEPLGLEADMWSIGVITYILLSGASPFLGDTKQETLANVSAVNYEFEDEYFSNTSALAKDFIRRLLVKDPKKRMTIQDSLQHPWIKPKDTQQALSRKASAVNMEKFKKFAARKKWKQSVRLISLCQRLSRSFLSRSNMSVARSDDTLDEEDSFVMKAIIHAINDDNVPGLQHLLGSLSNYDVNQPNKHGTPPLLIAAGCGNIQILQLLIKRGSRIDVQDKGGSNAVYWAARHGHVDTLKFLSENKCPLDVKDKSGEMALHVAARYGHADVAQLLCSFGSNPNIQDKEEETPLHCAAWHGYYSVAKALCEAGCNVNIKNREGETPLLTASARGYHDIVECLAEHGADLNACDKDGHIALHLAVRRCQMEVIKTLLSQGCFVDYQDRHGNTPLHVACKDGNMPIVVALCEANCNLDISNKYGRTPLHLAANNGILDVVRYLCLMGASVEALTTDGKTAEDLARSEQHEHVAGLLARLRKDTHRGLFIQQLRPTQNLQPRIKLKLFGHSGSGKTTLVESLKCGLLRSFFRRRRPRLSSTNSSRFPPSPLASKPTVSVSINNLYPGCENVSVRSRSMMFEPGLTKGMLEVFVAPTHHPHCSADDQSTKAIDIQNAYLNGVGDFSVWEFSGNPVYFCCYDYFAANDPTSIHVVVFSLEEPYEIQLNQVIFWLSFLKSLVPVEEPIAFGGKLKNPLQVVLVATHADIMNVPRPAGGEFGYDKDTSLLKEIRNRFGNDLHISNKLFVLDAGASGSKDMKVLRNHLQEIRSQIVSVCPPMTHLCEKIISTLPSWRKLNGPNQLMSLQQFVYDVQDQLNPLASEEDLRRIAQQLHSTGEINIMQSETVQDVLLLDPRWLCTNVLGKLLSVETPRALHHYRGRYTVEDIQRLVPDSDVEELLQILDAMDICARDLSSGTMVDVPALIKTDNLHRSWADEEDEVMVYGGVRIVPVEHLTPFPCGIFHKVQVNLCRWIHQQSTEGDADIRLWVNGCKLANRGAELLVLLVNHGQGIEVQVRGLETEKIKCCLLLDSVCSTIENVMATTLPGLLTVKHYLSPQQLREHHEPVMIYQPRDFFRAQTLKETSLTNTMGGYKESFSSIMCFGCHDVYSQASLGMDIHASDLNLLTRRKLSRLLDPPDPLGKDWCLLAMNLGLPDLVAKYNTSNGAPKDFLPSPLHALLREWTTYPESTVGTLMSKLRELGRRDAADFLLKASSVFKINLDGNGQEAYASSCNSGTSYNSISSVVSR
Protocol: (§2) Kinase profiling was performed by KINOMEscan (Eurofins Pharma Discovery, San Diego, CA, USA), using a panel of 423 protein kinases, as described previously. Compounds were submitted for dissociation constant (Kd) determination toward several target kinases using KINOMEscan. […] Binding reactions were performed at room temperature for 1 h, and the fraction of kinase not bound to the test compound was determined by capture with an immobilized affinity ligand and quantified by quantitative polymerase chain reaction. The primary screening at fixed concentrations of the compound was performed in duplicate. For dissociation constant Kd determination, a 12-point half-log dilution series (a maximum concentration of 33 μM) was used.

[7] = biological target: T2, DAPK2 (Homo sapiens, UniProt Q9UIK4); assay: KINOMEscan; type: binding; conditions: DAPK2; N.B.: no binding at concentrations up to 30 µM
T2 construct: purchased Eurofins Pharma Discovery (KINOMEscan)
Protocol: as §2

[8] = biological target: T3, DAPK3 (Homo sapiens, UniProt O43293); assay: KINOMEscan; type: binding; conditions: DAPK3; N.B.: no binding at concentrations up to 30 µM
T3 construct: purchased Eurofins Pharma Discovery (KINOMEscan)
Protocol: as §2

[9] = biological target: T4, DYRK1A (Homo sapiens, UniProt Q13627); assay: KINOMEscan; type: binding; conditions: DYRK1A; N.B.: no binding at concentrations up to 30 µM
T4 construct: purchased Eurofins Pharma Discovery (KINOMEscan)
Protocol: as §2

[10] = biological target: T5, DYRK1B (Homo sapiens, UniProt Q9Y463); assay: KINOMEscan; type: binding; conditions: DYRK1B; N.B.: no binding at concentrations up to 30 µM
T5 construct: purchased Eurofins Pharma Discovery (KINOMEscan)
T5 sequence (Q9Y463 whole entry): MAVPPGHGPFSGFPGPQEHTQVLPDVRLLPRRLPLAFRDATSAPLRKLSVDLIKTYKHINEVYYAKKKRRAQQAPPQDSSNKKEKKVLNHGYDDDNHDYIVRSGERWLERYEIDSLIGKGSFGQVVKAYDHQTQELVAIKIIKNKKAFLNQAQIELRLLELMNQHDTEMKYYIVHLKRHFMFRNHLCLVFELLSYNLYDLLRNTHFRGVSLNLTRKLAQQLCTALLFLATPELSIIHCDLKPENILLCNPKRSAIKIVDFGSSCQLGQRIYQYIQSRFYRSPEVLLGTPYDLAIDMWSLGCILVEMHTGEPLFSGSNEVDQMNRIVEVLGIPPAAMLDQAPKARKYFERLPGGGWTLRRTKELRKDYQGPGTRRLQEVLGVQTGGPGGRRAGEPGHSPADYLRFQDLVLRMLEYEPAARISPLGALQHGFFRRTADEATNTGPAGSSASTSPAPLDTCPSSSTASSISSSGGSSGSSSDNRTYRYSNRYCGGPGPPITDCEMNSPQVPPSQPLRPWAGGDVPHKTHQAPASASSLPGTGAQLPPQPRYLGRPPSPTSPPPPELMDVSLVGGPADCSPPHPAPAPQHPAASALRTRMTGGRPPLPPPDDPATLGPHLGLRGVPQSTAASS
Protocol: as §2

[11] = biological target: T6, HASPIN (Homo sapiens, UniProt Q8TF76); assay: KINOMEscan; type: binding; conditions: Haspin; N.B.: no binding at concentrations up to 30 µM
T6 construct: purchased Eurofins Pharma Discovery (KINOMEscan)
T6 sequence (Q8TF76 1-798): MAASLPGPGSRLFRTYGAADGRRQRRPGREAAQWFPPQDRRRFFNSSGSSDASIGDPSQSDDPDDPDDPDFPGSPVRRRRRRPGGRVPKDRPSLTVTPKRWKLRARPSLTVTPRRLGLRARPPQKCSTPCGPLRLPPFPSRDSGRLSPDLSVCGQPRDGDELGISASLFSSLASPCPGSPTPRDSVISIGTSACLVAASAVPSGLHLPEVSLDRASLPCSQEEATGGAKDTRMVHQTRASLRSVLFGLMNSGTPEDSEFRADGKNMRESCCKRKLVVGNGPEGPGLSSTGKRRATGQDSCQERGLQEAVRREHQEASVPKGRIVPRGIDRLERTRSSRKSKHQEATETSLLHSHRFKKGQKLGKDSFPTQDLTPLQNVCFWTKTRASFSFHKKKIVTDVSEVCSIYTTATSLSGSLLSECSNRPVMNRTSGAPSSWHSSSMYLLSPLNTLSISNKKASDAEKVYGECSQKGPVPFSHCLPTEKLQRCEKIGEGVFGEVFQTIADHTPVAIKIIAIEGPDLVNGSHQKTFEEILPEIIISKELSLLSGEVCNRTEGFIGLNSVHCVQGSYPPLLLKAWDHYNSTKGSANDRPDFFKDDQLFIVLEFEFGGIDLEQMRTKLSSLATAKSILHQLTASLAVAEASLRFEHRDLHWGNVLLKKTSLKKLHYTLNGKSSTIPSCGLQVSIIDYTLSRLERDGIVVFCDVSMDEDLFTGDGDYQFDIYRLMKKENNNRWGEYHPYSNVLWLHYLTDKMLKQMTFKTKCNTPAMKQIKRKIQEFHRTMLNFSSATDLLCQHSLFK
Protocol: as §2

[12] = biological target: T7, HIPK1 (Homo sapiens, UniProt Q86Z02); assay: KINOMEscan; type: binding; conditions: HIPK1; N.B.: no binding at concentrations up to 30 µM
T7 construct: purchased Eurofins Pharma Discovery (KINOMEscan)
T7 sequence (Q86Z02 whole entry): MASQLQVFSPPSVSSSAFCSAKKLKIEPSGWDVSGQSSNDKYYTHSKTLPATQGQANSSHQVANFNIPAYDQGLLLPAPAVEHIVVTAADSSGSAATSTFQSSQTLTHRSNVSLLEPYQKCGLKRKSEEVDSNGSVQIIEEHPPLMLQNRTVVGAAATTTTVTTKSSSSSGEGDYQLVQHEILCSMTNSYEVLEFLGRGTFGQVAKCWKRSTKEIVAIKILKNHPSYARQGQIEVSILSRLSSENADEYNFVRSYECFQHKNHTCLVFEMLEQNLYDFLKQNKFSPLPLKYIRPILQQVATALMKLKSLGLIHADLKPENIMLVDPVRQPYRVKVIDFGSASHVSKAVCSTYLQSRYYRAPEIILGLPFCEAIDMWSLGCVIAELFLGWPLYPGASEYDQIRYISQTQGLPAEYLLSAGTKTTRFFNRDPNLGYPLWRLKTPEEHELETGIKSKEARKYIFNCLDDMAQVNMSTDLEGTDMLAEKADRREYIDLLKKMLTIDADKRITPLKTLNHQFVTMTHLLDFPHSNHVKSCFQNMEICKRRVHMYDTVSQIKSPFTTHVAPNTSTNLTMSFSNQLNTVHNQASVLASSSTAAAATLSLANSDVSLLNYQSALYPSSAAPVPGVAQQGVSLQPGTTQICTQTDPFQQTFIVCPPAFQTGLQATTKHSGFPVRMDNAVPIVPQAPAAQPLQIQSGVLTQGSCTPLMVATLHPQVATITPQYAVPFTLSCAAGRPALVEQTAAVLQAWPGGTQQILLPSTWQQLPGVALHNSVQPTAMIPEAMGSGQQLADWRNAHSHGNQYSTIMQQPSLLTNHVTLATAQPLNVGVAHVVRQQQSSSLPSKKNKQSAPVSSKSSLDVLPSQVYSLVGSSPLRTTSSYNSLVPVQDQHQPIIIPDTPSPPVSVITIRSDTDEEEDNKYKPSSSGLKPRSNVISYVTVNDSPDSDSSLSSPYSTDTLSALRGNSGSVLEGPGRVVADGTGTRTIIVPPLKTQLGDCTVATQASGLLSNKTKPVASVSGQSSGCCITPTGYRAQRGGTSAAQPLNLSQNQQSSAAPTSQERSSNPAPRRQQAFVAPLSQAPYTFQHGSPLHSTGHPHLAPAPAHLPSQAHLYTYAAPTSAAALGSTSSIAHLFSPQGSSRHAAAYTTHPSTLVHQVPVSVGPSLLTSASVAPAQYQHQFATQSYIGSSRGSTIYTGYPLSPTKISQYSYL
Protocol: as §2

[13] = biological target: T8, HIPK2 (Homo sapiens, UniProt Q9H2X6); assay: KINOMEscan; type: binding; conditions: HIPK2; N.B.: no binding at concentrations up to 30 µM
T8 construct: purchased Eurofins Pharma Discovery (KINOMEscan)
T8 sequence (Q9H2X6 whole entry): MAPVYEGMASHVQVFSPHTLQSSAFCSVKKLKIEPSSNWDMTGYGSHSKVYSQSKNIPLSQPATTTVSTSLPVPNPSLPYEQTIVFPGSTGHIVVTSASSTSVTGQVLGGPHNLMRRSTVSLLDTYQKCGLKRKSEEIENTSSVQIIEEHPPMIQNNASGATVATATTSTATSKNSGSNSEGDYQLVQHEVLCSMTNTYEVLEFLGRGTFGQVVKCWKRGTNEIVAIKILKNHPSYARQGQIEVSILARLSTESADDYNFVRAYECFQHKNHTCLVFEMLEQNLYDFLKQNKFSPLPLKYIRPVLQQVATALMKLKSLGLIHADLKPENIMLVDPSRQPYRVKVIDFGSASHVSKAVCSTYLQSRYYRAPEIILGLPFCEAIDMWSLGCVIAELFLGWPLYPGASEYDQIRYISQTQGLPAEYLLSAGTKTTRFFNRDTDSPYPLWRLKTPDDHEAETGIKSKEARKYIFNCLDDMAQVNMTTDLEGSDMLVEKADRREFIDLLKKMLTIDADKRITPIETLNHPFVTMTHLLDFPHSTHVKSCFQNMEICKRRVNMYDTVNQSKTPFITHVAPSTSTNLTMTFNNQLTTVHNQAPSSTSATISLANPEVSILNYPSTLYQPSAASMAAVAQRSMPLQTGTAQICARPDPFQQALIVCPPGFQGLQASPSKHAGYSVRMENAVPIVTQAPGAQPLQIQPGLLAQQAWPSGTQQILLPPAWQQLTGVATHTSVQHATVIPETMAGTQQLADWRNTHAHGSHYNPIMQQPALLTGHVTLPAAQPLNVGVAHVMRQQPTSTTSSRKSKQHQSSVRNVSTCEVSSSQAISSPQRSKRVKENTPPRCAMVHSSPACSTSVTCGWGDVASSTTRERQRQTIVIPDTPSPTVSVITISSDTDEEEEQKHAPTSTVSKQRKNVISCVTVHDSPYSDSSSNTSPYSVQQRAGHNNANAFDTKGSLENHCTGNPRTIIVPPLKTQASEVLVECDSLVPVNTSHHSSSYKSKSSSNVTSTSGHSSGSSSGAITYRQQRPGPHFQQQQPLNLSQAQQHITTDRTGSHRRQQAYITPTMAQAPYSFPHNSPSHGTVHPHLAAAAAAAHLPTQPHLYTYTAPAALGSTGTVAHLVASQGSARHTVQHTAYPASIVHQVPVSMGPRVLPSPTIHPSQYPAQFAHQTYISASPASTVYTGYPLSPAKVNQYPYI
Protocol: as §2

[14] = biological target: T9, HIPK3 (Homo sapiens, UniProt Q9H422); assay: KINOMEscan; type: binding; conditions: HIPK3; N.B.: no binding at concentrations up to 30 µM
T9 construct: purchased Eurofins Pharma Discovery (KINOMEscan)
Protocol: as §2

[15] = biological target: T10, IRAK1 (Homo sapiens, UniProt P51617); assay: KINOMEscan; type: binding; conditions: IRAK1; N.B.: no binding at concentrations up to 30 µM
T10 construct: purchased Eurofins Pharma Discovery (KINOMEscan)
Protocol: as §2

[16] = biological target: T11, NEK10 (Homo sapiens, UniProt Q6ZWH5); assay: KINOMEscan; type: binding; conditions: NEK10; N.B.: no binding at concentrations up to 30 µM
T11 construct: purchased Eurofins Pharma Discovery (KINOMEscan)
T11 sequence (Q6ZWH5 1-1172): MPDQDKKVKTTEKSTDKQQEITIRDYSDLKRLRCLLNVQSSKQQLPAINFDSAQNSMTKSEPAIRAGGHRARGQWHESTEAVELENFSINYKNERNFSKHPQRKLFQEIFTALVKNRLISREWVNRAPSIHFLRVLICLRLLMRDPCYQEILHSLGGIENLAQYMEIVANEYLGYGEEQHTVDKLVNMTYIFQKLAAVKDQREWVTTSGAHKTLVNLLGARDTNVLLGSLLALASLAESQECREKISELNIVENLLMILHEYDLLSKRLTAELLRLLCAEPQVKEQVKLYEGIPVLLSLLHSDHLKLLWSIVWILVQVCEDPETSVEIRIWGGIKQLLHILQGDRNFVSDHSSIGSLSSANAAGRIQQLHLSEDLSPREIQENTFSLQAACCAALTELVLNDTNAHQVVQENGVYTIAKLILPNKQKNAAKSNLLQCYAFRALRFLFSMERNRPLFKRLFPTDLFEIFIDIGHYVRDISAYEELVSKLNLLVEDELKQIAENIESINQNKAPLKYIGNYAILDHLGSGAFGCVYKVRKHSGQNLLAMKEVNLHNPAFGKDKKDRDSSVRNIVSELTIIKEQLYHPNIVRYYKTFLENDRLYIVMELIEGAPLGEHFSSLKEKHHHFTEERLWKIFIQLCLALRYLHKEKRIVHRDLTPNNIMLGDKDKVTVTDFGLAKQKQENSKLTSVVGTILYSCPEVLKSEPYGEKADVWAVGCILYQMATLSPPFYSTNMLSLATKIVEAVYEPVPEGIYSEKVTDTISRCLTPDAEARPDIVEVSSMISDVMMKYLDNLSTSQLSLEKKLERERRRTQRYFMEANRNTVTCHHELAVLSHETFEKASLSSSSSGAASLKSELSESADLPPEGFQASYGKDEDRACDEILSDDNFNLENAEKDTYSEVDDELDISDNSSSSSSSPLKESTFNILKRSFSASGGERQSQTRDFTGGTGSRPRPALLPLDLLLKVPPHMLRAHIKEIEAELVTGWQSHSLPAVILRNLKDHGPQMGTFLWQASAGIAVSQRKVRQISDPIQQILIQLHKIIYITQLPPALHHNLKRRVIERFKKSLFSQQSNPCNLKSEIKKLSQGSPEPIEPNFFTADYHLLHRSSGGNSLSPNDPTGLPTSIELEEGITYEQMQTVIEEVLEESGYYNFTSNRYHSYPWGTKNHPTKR
Protocol: as §2

[17] = biological target: T12, PIM1 (Homo sapiens, UniProt P11309); assay: KINOMEscan; type: binding; conditions: PIM1; N.B.: no binding at concentrations up to 30 µM
T12 construct: purchased Eurofins Pharma Discovery (KINOMEscan)
T12 sequence (P11309 whole entry): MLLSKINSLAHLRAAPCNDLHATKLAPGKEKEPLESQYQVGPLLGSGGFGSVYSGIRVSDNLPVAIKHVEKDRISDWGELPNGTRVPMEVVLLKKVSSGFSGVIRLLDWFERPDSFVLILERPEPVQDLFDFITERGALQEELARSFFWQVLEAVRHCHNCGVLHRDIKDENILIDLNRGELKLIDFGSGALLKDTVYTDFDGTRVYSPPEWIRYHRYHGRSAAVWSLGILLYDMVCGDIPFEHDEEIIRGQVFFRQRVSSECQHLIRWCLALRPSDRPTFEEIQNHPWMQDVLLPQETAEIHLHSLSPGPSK
Protocol: as §2

[18] = test system: kinases; assay: Published kinase profile of SP600125, selectivity score; type: binding; conditions: from published kinase profile; 39/119

SMILES: CON=C1C(=O)Nc2c1ccc1c2CCCC1 [Compound 5b, 3-(Methoxyimino)-1,3,6,7,8,9-hexahydro-2H-benzo[g]indol-2-one]
- inhibition of secretion of IL-1α, IL-1β, IL-6, TNF and MCP-1 [1]: ineffective

SMILES: CON=C1C(=O)Nc2c1cc([N+](=O)[O-])c1c2CCCC1 [Compound 5e, 3-(Methoxyimino)-5-nitro-1,3,6,7,8,9-hexahydro-2H-benzo[g]indol-2-one]
- inhibition of secretion of IL-1α, IL-1β, IL-6, TNF and MCP-1 [1]: ineffective

SMILES: CCN1CCc2c(-c3ccccc3)cc3c(c2C1)NC(=O)C3=NO [NS-383, 8-ethyl-6,7,8,9-tetrahydro-5-phenyl-1H-pyrrolo[3,2-h]isoquinolin-2,3-dione-3-oxime, reference compound]
- IC50 at 24 h [2]: 19.2 ± 2.1 µM
- Cytotoxicity (THP-1 Cells) IC50 (µM) [3]: cytotoxic
- IC50 at 24 h [4]: 21.2 ± 2.4 µM
- Cytotoxicity (MonoMac-6 Cells) IC50 (µM) [5]: cytotoxic
- Kd (µM) [6]: N.B.
- Kd (µM) [7]: N.B.
- Kd (µM) [8]: N.B.
- Kd (µM) [9]: N.B.
- Kd (µM) [10]: N.B.
- Kd (µM) [11]: N.B.
- Kd (µM) [12]: N.B.
- Kd (µM) [13]: N.B.
- Kd (µM) [14]: N.B.
- Kd (µM) [15]: N.B.
- Kd (µM) [16]: N.B.
- Kd [17]: 14 ± 0.7 µM

SMILES: Oc1c2ccccc2c2c3c(cccc13)N=N2 [SP600125]
- selectivity score, S(10) [18]: 0.328
